Target: T1, Ubiquitin carboxyl-terminal hydrolase 30 (Homo sapiens, UniProt Q70CQ3)
T1 sequence (Q70CQ3 whole entry): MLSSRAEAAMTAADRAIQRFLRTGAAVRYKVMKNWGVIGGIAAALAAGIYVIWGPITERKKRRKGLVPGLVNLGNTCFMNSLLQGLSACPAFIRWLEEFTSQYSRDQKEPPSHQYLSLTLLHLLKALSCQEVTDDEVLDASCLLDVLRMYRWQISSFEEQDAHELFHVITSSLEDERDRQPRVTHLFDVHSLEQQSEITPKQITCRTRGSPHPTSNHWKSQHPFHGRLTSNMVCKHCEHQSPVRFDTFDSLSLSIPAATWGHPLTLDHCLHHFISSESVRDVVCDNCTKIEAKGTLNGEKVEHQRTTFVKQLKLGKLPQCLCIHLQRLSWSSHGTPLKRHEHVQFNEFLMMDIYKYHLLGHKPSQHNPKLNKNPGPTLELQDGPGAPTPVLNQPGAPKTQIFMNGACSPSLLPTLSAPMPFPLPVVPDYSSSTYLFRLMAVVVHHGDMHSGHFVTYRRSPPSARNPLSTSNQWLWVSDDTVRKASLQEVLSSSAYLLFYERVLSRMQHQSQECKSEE
Test: Biochemical Fluorescence Intensity Kinetic Assay/Biochemical Fluorescence Intensity Assay: USP30 Biochemical Fluorescence Intensity Kinetic Assay.Reactions were performed in duplicate in black 384 well plates (small volume, Greiner 784076) in a final reaction volume of 21 μl. USP30 CD (Boston Biochem E-582 or 57-517, #64-0057-050 Ubiquigent) was diluted in reaction buffer (40 mM Tris, pH 7.5, 0.005% Tween 20, 0.5 mg/ml BSA, 5 mM beta-mercaptoethanol) to the equivalent of 0, 0.0005, 0.001, 0.005, and 0.01 μl/well. Buffer was optimised for optimal temperature, pH, reducing agent, salts, time of incubation, and detergent. Reactions were initiated by the addition of Ubiquitin-Rhodamine 110 (U-555, Boston Biochem) at a final concentration of 100 nM. Reactions were incubated at room temperature and read every 2 min for 120 min. Readings were performed on a Pherastar Plus (BMG Labtech). […] A typical 8-point dilution series would be 100, 30, 10, 3, 1, 0.3, 0.1, 0.03 μM final. Reactions were performed in duplicate in black 384 well plates (small volume, Greiner 784076) in a final reaction volume of 21 μl. Either 1 μl of 50% DMSO or diluted compound was added to the plate. USP30 was diluted in reaction buffer (40 mM Tris, pH 7.5, 0.005% Tween 20, 0.5 mg/ml BSA, 5 mM beta-mercaptoethanol) to the equivalent of 0.001 μl/well and 10 μl of diluted USP30 was added to the compound. […]

IC50	Compound
in the range around 5.5 µM	N#CN1C[C@H]2CCN(C(=O)N3CCc4ccccc43)[C@H]2C1
in the range around 0.55 µM	N#CN1CC[C@@H](NC(=O)c2ccc(N3CCOCC3)cc2)C1

— ChEMBL document CHEMBL5727761, “1-cyano-pyrrolidine compounds as USP30 inhibitors” (2020)
